Data: patent US20250026796A1 (priority 2022, published 2025)
Where no end group is shown, it is not given here.

What was measured:
[1] = mouse, in vivo
[2] = mouse
SARS-CoV-2 E (2E) [3] = target: T1, SARS-CoV-2 E (2E) (Severe acute respiratory syndrome coronavirus 2, UniProt P0DTC4); type: cell-based
HCoV-NL63 E protein [4] = target: T2, HCoV-NL63 E protein (Human coronavirus NL63, UniProt Q6Q1S0); type: cell-based; conditions: construct co-transfection, HEK 293T
HCoV-NL63 E protein [5] = target: T2, HCoV-NL63 E protein; type: cell-based; conditions: construct co-transfection, NIH 3T3
Description: (§1) For the imaging experiments in FIGS. 1a-1e and 7a-7f, NIH 3T3 cells were plated at a cell density of 2.5×10^5 cells/ml. The following day, the cells were transfected using Lipofectamine 3000 reagents (Thermo-Fisher, #L3000001). 4 μg of plasmid were mixed into 125 μL of serum-free OptiMEM with 5 μL of P3000 reagent. This was then added to another 125 μL of serum-free OptiMEM containing 7.5 μL of Lipofectamine 3000. Plasmid/P3000-lipofectamine complex was incubated for 15 minutes at room temperature, and then added to the plate. The medium was replaced 20-24 h after transfection, and 1 μM of Lysosensor Green DND-189 (Thermo-Fisher, L7535) was added. The cells were incubated for 30 minutes in a 37° C., 5% CO2 incubator. The medium was replaced one final time prior to imaging. The live cell imaging was conducted on a customized/automated fluorescence microscope (Ti—U, Nikon) using an environmental chamber (TOKAI) and the culture medium to maintain normal cell culture conditions (37° C., 5% CO2, 20% O2). […] Fluorescence quantification and analysis was performed with ImageJ software and Prism 7/8/9 (GraphPad). Representative images were also gathered on a Leica DMi8 confocal microscope. The following peptides (>95% purity) were synthesized by Thermo-Fisher/Pierce: […]

MERS-CoV E protein = MERS-CoV E protein (Middle East respiratory syndrome-related coronavirus, UniProt K9N5R3); type: cell-based
MERS-CoV E protein, sequence (K9N5R3 whole entry, looked up): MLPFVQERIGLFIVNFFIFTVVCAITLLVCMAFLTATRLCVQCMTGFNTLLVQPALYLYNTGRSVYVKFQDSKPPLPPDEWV

SARS-CoV-2 E (2E) [6] = target: T1, SARS-CoV-2 E (2E)
2E protein = 2E protein (Severe acute respiratory syndrome coronavirus 2, UniProt P0DTC4)
2E protein, sequence (P0DTC4 whole entry, looked up): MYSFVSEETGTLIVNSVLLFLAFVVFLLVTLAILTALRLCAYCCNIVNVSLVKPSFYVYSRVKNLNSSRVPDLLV

HCoV-HKU1 E protein = HCoV-HKU1 E protein (Human coronavirus HKU1, UniProt Q5MQC8); type: cell-based; conditions: construct co-transfection, NIH 3T3
HCoV-HKU1 E protein, sequence (Q5MQC8 whole entry, looked up): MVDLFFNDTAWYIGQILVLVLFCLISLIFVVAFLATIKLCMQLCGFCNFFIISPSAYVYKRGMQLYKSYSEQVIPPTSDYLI
Description: as §1

T2 sequence (Q6Q1S0 whole entry, looked up): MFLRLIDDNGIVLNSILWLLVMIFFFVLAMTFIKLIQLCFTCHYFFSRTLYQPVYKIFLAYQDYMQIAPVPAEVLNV
T1 sequence (P0DTC4 whole entry, looked up): as the sequence (P0DTC4 whole entry, looked up) above

Substance: GRKKRRQRRRPPQ-MYSFVSDDTGTLIVNSVL-L[C]AlexaFluo594 [TAT-MY18-2ED-Alexa Fluor 594]
- Detection of fluorescent peptide in nasal tissues [1]: can permeate and is detectable in mouse nasal tissues
- Detection of fluorescent peptide in lung tissues ([1]; iv): can permeate and is detectable in mouse lung tissues
- Penetration into cells (Vero-E6 cells): can penetrate into these cells
- Cell-penetrating "on" kinetics (NIH 3T3 cells): faster cell-penetrating than N-terminal version

Substance: GRKKRRQRRRPPQMYSFVSDDTGTLIVNSVL [iPep-SARS2-E]
- IC50 (SARS-CoV-2 WA1 virus; WA1 virus): ~200 nM
- Toxicity in vivo [2]: no obvious toxicity
- Body weight ([2]; in vivo): did not find that there are differences
- C5a (inflammation marker) ([2]; in vivo): did not find that there are differences
- Cxc112 (inflammation marker) ([2]; in vivo): did not find that there are differences

Substance: GRKKRRQRRRPPQMYSFVSEETGTLIVNSVL [TAT-MY18]
- Effect of synthetic peptide on 2E in DND-189-based pH imaging (SARS-CoV-2 E (2E) [3]): effective cell-penetrating peptide
- Relative fluorescent intensity of DND-189 dye compared to mock (SARS-CoV-2 E (2E) [3]): not different from mock

Substance: MFLRLIDDNGIVLNSILW [HCoV-NL63 MY18 WT]
- Relative NFAT-FLuc/TK-RLuc activity (effect of NL63-E) (HCoV-NL63 E protein [4]): could significantly reduce the effect of each E on NFAT/AP-1 reporter

Substance: MFLRLIEEDGIVLNSILW [HCoV-NL63 MY18 2DE & N9D]
- Relative NFAT-FLuc/TK-RLuc activity (effect of NL63-E) (HCoV-NL63 E protein [4]): effective to inhibit the cellular toxicity
- DND-189 fluorescence (proton homeostasis), HCoV-NL63 E (HCoV-NL63 E protein [5]): could significantly rescue the phenotypes in proton homeostasis

Substance: MLPFVQERIGLFIVNFFI [MERS-CoV MY18 WT]
- Relative NFAT-FLuc/TK-RLuc activity (effect of MERS-E) (MERS-CoV E protein): could significantly reduce the effect of each E on NFAT/AP-1 reporter

Substance: MYSFVSDDTGTLIVNSVL [MY18-2ED]
- Relative NFAT-FLuc/TK-RLuc activity (effect of 2E on NFAT/AP-1 pathway) (SARS-CoV-2 E (2E) [6]): significantly improves the inhibitory effect

Substance: MYSFVSEETGTLIVNSVL [MY18]
- Inhibition of viral toxicity (cytopathic effect) (SARS-CoV-2 WA1 virus): moderate inhibitory effect on the virus
- Co-localization with 2E proteins (2E protein): co-localized with 2E proteins
- Effect of synthetic peptide on 2E in DND-189-based pH imaging (SARS-CoV-2 E (2E) [3]): does not have any effect on 2E
- Relative NFAT-FLuc/TK-RLuc activity (effect of 2E on NFAT/AP-1 pathway) (SARS-CoV-2 E (2E) [6]): significantly suppresses the effect of 2E on the NFAT/AP-1 pathway

Substance: RQIKIWFQNRRMKWKKMYSFVSEETGTLIVNSVL [Pen-MY18]
- Relative fluorescent intensity of DND-189 dye compared to mock (SARS-CoV-2 E (2E) [3]): significantly lower than mock

Substance: RRRRRRMYSFVSEETGTLIVNSVL [6Arg-MY18]
- Relative fluorescent intensity of DND-189 dye compared to mock (SARS-CoV-2 E (2E) [3]): significantly lower than mock

Substance: VDLFFNETAWYIGQILV [HCoV-HKU1 MY18 D8E]
- DND-189 fluorescence (proton homeostasis), HCoV-HKU1 E (HCoV-HKU1 E protein): could significantly rescue the phenotypes in proton homeostasis
